In PubChem BioAssay (NCI):
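Growth conditions: 96-well plates. Treatment: test compound, 48 hours, 5 concentrations. Analysis: linear interpolation between bracketing concentrations; unreached endpoints set to highest concentration. TGI: concentration producing complete growth inhibition.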

Legend:
Assay in all cases: NCI anticancer screen, dose series, 48 h
SK-MEL-2 melanoma = system: SK-MEL-2 melanoma
786-0 renal = system: 786-0 renal
A498 renal = system: A498 renal
HCT-15 colon = system: HCT-15 colon
TK-10 renal = system: TK-10 renal
RXF-631 renal = system: RXF-631 renal
HOP-92 NSCLC = system: HOP-92 NSCLC
HL-60(TB) leukemia = system: HL-60(TB) leukemia
NCI-H460 lung = system: NCI-H460 lung
KM20L2 colon = system: KM20L2 colon
SF-539 CNS = system: SF-539 CNS
SR leukemia = system: SR leukemia
ACHN renal = system: ACHN renal
LOX IMVI melanoma = system: LOX IMVI melanoma
SW-620 colon = system: SW-620 colon
OVCAR-5 ovarian = system: OVCAR-5 ovarian
SF-295 CNS = system: SF-295 CNS
COLO 205 colon = system: COLO 205 colon
DMS 114 small cell lung = system: DMS 114 small cell lung
IGROV1 ovarian = system: IGROV1 ovarian
NCI-H23 lung = system: NCI-H23 lung
SF-268 CNS = system: SF-268 CNS
OVCAR-8 ovarian = system: OVCAR-8 ovarian
DMS 273 small cell lung = system: DMS 273 small cell lung
HCT-116 colon = system: HCT-116 colon
SNB-78 CNS = system: SNB-78 CNS
M14 melanoma = system: M14 melanoma
SK-MEL-28 melanoma = system: SK-MEL-28 melanoma
K-562 leukemia = system: K-562 leukemia
SN12C renal = system: SN12C renal
U251 CNS = system: U251 CNS
UACC-257 melanoma = system: UACC-257 melanoma
UO-31 renal = system: UO-31 renal
MOLT-4 leukemia = system: MOLT-4 leukemia
SNB-19 CNS = system: SNB-19 CNS
HCC-2998 colon = system: HCC-2998 colon
KM12 colon = system: KM12 colon
MALME-3M melanoma = system: MALME-3M melanoma
UACC-62 melanoma = system: UACC-62 melanoma
HT29 colon = system: HT29 colon
EKVX NSCLC = system: EKVX NSCLC
XF 498 CNS = system: XF 498 CNS
RPMI-8226 leukemia = system: RPMI-8226 leukemia
SK-MEL-5 melanoma = system: SK-MEL-5 melanoma
OVCAR-3 ovarian = system: OVCAR-3 ovarian
HOP-18 NSCLC = system: HOP-18 NSCLC
RXF 393 renal = system: RXF 393 renal
M19-MEL melanoma = system: M19-MEL melanoma
A549 NSCLC = system: A549 NSCLC
DLD-1 colon = system: DLD-1 colon
HOP-62 NSCLC = system: HOP-62 NSCLC
SNB-75 CNS = system: SNB-75 CNS
SK-OV-3 ovarian = system: SK-OV-3 ovarian
LXFL 529 NSCLC = system: LXFL 529 NSCLC
CCRF-CEM leukemia = system: CCRF-CEM leukemia
OVCAR-4 ovarian = system: OVCAR-4 ovarian
NCI-H226 lung = system: NCI-H226 lung
CAKI-1 renal = system: CAKI-1 renal
NCI-H522 lung = system: NCI-H522 lung

`O=S(=O)(/C=C/CS(=O)(=O)c1ccccc1)c1ccccc1` gave a TGI (SK-MEL-2 melanoma) of 29.3 µM, a TGI (786-0 renal) of 55.6 µM and a TGI (A498 renal) of 82.3 µM. The TGI (HCT-15 colon) was 45.6 µM, the TGI (TK-10 renal) was greater than 100 µM and the TGI (RXF-631 renal) was 52.8 µM. For the same compound, the TGI (HOP-92 NSCLC) was greater than 100 µM, the TGI (HL-60(TB) leukemia) was 37.9 µM and the TGI (NCI-H460 lung) was 63.9 µM. The TGI (KM20L2 colon) was 74.2 µM, the TGI (SF-539 CNS) was 43.6 µM and the TGI (SR leukemia) was 36.4 µM. For the same compound, the TGI (ACHN renal) was greater than 100 µM, the TGI (LOX IMVI melanoma) was 57.4 µM and the TGI (SW-620 colon) was 45.7 µM. The TGI (OVCAR-5 ovarian) was greater than 100 µM, the TGI (SF-295 CNS) was 93.6 µM and the TGI (COLO 205 colon) was greater than 100 µM. The TGI (DMS 114 small cell lung) was 52 µM, the TGI (IGROV1 ovarian) was greater than 100 µM and the TGI (NCI-H23 lung) was 50 µM. For the same compound, the TGI (SF-268 CNS) was greater than 100 µM, the TGI (OVCAR-8 ovarian) was 32.5 µM and the TGI (DMS 273 small cell lung) was greater than 100 µM. For the same compound, the TGI (HCT-116 colon) was 57.1 µM, the TGI (SNB-78 CNS) was 89.9 µM and the TGI (M14 melanoma) was 67.3 µM. The TGI (SK-MEL-28 melanoma) was greater than 100 µM, the TGI (K-562 leukemia) was 98.4 µM and the TGI (SN12C renal) was 88 µM. For the same compound, the TGI (U251 CNS) was 77.5 µM, the TGI (UACC-257 melanoma) was 87 µM and the TGI (UO-31 renal) was greater than 100 µM. It also gave a TGI (MOLT-4 leukemia) of 74 µM, a TGI (SNB-19 CNS) greater than 100 µM and a TGI (HCC-2998 colon) of 57.1 µM. It also gave a TGI (KM12 colon) of 32.3 µM, a TGI (MALME-3M melanoma) greater than 100 µM and a TGI (UACC-62 melanoma) of 52.2 µM. It also gave a TGI (HT29 colon) greater than 100 µM, a TGI (EKVX NSCLC) greater than 100 µM and a TGI (XF 498 CNS) of 62.6 µM. It also gave a TGI (RPMI-8226 leukemia) of 95.7 µM, a TGI (SK-MEL-5 melanoma) greater than 100 µM and a TGI (OVCAR-3 ovarian) of 84.7 µM. The TGI (HOP-18 NSCLC) was greater than 100 µM, the TGI (RXF 393 renal) was greater than 100 µM and the TGI (M19-MEL melanoma) was greater than 100 µM. The TGI (A549 NSCLC) was 60.8 µM, the TGI (DLD-1 colon) was greater than 100 µM and the TGI (HOP-62 NSCLC) was 46.2 µM. For the same compound, the TGI (SNB-75 CNS) was greater than 100 µM, the TGI (SK-OV-3 ovarian) was 87 µM and the TGI (LXFL 529 NSCLC) was greater than 100 µM. For the same compound, the TGI (CCRF-CEM leukemia) was greater than 100 µM, the TGI (OVCAR-4 ovarian) was greater than 100 µM and the TGI (NCI-H226 lung) was 61.9 µM.
`O=C1/C(=N\O)S(=O)(=O)c2ccccc21` was tested, and the TGI (SK-MEL-2 melanoma) was greater than 100 µM, the TGI (786-0 renal) was greater than 100 µM and the TGI (A498 renal) was greater than 100 µM. It also gave a TGI (HCT-15 colon) greater than 100 µM, a TGI (TK-10 renal) greater than 100 µM and a TGI (RXF-631 renal) greater than 100 µM. The TGI (HOP-92 NSCLC) was greater than 100 µM, the TGI (HL-60(TB) leukemia) was greater than 100 µM and the TGI (NCI-H460 lung) was greater than 100 µM. It also gave a TGI (KM20L2 colon) greater than 100 µM, a TGI (SF-539 CNS) greater than 100 µM and a TGI (SR leukemia) greater than 100 µM. It also gave a TGI (ACHN renal) greater than 100 µM, a TGI (LOX IMVI melanoma) greater than 100 µM and a TGI (SW-620 colon) greater than 100 µM. For the same compound, the TGI (OVCAR-5 ovarian) was greater than 100 µM, the TGI (SF-295 CNS) was greater than 100 µM and the TGI (COLO 205 colon) was greater than 100 µM. It also gave a TGI (CAKI-1 renal) greater than 100 µM, a TGI (DMS 114 small cell lung) greater than 100 µM and a TGI (IGROV1 ovarian) greater than 100 µM. The TGI (SF-268 CNS) was greater than 100 µM, the TGI (OVCAR-8 ovarian) was greater than 100 µM and the TGI (DMS 273 small cell lung) was greater than 100 µM. It also gave a TGI (HCT-116 colon) greater than 100 µM, a TGI (SNB-78 CNS) greater than 100 µM and a TGI (M14 melanoma) greater than 100 µM. The TGI (K-562 leukemia) was greater than 100 µM, the TGI (SN12C renal) was greater than 100 µM and the TGI (U251 CNS) was greater than 100 µM. For the same compound, the TGI (UACC-257 melanoma) was greater than 100 µM, the TGI (UO-31 renal) was greater than 100 µM and the TGI (MOLT-4 leukemia) was greater than 100 µM. For the same compound, the TGI (SNB-19 CNS) was greater than 100 µM, the TGI (HCC-2998 colon) was greater than 100 µM and the TGI (KM12 colon) was greater than 100 µM. It also gave a TGI (MALME-3M melanoma) greater than 100 µM, a TGI (UACC-62 melanoma) greater than 100 µM and a TGI (HT29 colon) greater than 100 µM. It also gave a TGI (RPMI-8226 leukemia) greater than 100 µM, a TGI (SK-MEL-5 melanoma) greater than 100 µM and a TGI (HOP-18 NSCLC) greater than 100 µM. For the same compound, the TGI (RXF 393 renal) was greater than 100 µM, the TGI (M19-MEL melanoma) was greater than 100 µM and the TGI (A549 NSCLC) was greater than 100 µM. The TGI (DLD-1 colon) was greater than 100 µM, the TGI (HOP-62 NSCLC) was greater than 100 µM and the TGI (SNB-75 CNS) was greater than 100 µM. It also gave a TGI (SK-OV-3 ovarian) greater than 100 µM, a TGI (LXFL 529 NSCLC) greater than 100 µM and a TGI (NCI-H522 lung) greater than 100 µM. The TGI (CCRF-CEM leukemia) was greater than 100 µM, the TGI (OVCAR-4 ovarian) was greater than 100 µM and the TGI (NCI-H226 lung) was greater than 100 µM.
